Data from ChEMBL document CHEMBL1156863, “Synthesis of 1-(D-glucopyranosyl)-1,2,3-triazoles and their evaluation as glycogen phosphorylase inhibitors” (Bioorg Med Chem, 2010).

How the values were obtained:
[1] = target: T1, Glycogen phosphorylase, muscle form (Oryctolagus cuniculus, UniProt P00489)
T1 sequence (P00489 whole entry): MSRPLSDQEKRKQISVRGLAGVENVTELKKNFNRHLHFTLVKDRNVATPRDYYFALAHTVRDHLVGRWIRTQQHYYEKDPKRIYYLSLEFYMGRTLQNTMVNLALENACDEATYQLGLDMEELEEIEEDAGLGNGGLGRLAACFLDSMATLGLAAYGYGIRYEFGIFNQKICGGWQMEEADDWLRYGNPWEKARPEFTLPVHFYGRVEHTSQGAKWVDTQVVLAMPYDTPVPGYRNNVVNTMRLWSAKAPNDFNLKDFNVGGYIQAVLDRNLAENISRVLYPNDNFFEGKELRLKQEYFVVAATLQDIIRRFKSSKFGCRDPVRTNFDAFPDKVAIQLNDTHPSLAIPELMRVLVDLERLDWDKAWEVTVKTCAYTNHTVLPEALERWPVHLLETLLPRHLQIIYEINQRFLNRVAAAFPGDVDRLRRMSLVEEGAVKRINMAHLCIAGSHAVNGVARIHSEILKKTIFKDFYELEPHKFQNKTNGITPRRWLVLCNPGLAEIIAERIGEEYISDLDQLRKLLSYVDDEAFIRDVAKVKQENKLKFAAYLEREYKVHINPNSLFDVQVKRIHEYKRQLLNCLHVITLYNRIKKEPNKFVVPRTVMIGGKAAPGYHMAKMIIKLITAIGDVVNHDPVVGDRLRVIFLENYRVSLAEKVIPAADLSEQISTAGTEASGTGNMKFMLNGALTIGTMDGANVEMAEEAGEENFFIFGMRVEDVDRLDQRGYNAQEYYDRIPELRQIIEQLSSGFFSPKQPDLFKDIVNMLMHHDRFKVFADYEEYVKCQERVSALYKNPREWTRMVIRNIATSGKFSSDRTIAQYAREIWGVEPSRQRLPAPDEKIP

[2] = target: T1, Glycogen phosphorylase, muscle form; assay: Inhibition of rabbit skeletal muscle glycogen phosphorylase b by Dixon plot
[3] = target: T1, Glycogen phosphorylase, muscle form; assay: Inhibition of rabbit skeletal muscle glycogen phosphorylase b by Lineweaver-Burke plot analysis

Work on `COC(=O)N[C@]1(C(N)=O)O[C@H](CO)[C@@H](O)[C@H](O)[C@H]1O` yielded a Ki [1] of 16 µM and a Ki [2] of 16 µM.

`NC(=O)[C@H]1O[C@H](CO)[C@@H](O)[C@H](O)[C@H]1O` gave a Ki [1] of 370 µM.

In the case of `CC(=O)N[C@]1(C(N)=O)O[C@H](CO)[C@@H](O)[C@H](O)[C@H]1O`, the Ki [1] is reported as 310 µM.

`NOC(=O)c1cn([C@@H]2O[C@H](CO)[C@@H](O)[C@H](O)[C@H]2O)nn1` showed an IC50 [3] of 350 µM.

`OC[C@H]1O[C@@H](n2cc(-c3ccc4ccccc4c3)nn2)[C@H](O)[C@@H](O)[C@@H]1O` showed a Ki [2] of 36 µM.

For `OC[C@H]1O[C@@H](n2cc(-c3cccc4ccccc34)nn2)[C@H](O)[C@@H](O)[C@@H]1O`, the IC50 [3] was 625 µM.

For `OC[C@H]1O[C@@H](n2cc(Cc3ccccc3)nn2)[C@H](O)[C@@H](O)[C@@H]1O`, the IC50 [3] was 600 µM.

`COCC(=O)N[C@@H]1O[C@H](CO)[C@@H](O)[C@H](O)[C@H]1O` was tested, and the Ki [1] was 210 µM.

`OCc1cn([C@H]2O[C@H](CO)[C@@H](O)[C@H](O)[C@H]2O)nn1` showed an IC50 [3] of 670 µM.

`COC(=O)c1cn([C@@H]2O[C@H](CO)[C@@H](O)[C@H](O)[C@H]2O)nn1` showed an IC50 [3] of 500 µM.

Compound `O=C(Cc1ccccc1)N[C@@H]1O[C@H](CO)[C@@H](O)[C@H](O)[C@H]1O` has a Ki [1] of 1100 µM.

Compound `OC[C@H]1O[C@@H](n2cc(-c3ccccc3)nn2)[C@H](O)[C@@H](O)[C@@H]1O` has a Ki [2] of 162 µM.

`O=C(O)c1cn([C@H]2O[C@H](CO)[C@@H](O)[C@H](O)[C@H]2O)nn1` was tested, and the IC50 [3] was 400 µM.

`OCc1cn([C@@H]2O[C@H](CO)[C@@H](O)[C@H](O)[C@H]2O)nn1` gave a Ki [2] of 26 µM.

For `NC(=O)[C@@]1(n2cc(-c3ccc4ccccc4c3)nn2)O[C@H](CO)[C@@H](O)[C@H](O)[C@H]1O`, the IC50 [3] was 780 µM.

Work on `O=C(CO)N[C@@H]1O[C@H](CO)[C@@H](O)[C@H](O)[C@H]1O` yielded a Ki [2] of 20 µM.

In the case of `O=C(NC1O[C@H](CO)[C@@H](O)[C@H](O)[C@H]1O)c1ccccc1` (single isomer, unassigned), the Ki [1] is reported as 144 µM.
